Data on two compounds can be found in US20160137714A1 (Thrasos Innovation, Inc., priority 2014, published 2016).

Data set [1] in a line: Pharmacokinetics of GPR-405 given at 1 mg/kg sc in CD1 mice. It counts as in vivo, mouse. As to the method: The study described herein involved single (mouse) or multiple (rat) blood collections after test article administration. Test articles are given by oral (PO), intravenous (IV), subcutaneous (SC) or intraperitoneal (IP) routes. All animals have a five day acclimatization period before dosing. Body weights are recorded prior to dosing. For mouse PK, 3 animals per group per time point are used (terminal bleed). For rats, multiple blood samplings per animal (adequately spaced in time) are taken. At the end of the study, all animals are euthanized by CO2 and final blood sample was collected via cardiac puncture.
Preparations are performed under a laminar flow hood using clean procedures. The formulations are kept at in a refrigerator set to maintain 4° C. before use. The dose volume for each animal is based on the most recent body weight measurement.
for PO administration, animal has either restricted access to food until the next day (12 h) before dosing or are allowed free access to food (depending on whether the PK will be done on fasted or fed animals). In all cases, animals has access to water ad libidum. PO dosing is done by gavage using a curved gavage needle (with rounded tip). All animals are observed for few seconds after injection to make sure there are no side effects. For IV administration, dosing (mice and rat) is done by the tail vein. Compound administration is done by slow (15-60 sec) bolus or by slow IV infusion (up to 1 h) using a calibrated syringe pump. For subcutaneous (dorsal region) and intraperitoneal injections, dosing is done with the appropriate needle and volume as per IACUC guidelines. GPR-405 was administered once by SC injection to each animal in the test group using a hypodermic needle attached to a syringe. No dose was administered to control animals.
Sampling is done via the tail, jugular or saphenous vein. Typical time for blood collection for PK are Pre, 5, 15, 30 minutes, 1 h, 2 h, 4 h, 8 h, 24 h. For mice, animals are terminated at each collection (cardiac puncture post-euthanasia). For rats, 200 μl are collected at each time point (max 3 time points per rat in 24 h). Plasma harvested from blood is mixed with 8.5% phosphoric acid (2% v/v of plasma). All plasma samples collected are stored in a freezer, set to maintain −80° C. until bioanalysis. At necropsy, tissues, organs and/or biological fluid are collected, as needed, for analysis. Urine collection is done using metabolic cages when required.
A stock solution of the test article is prepared at 250 μg/mL in DMSO. This solution is quantitatively added to blank mouse or rat plasma to generate a calibration curve. The linear range is from 0.25 to 250 ng/mL. A 175 μL aliquot of plasma is removed from each calibrant tube and processed using solid phase extraction (SPE). Study samples are first diluted with blank control mouse or rat plasma, and 175 μL is aliquoted for processing using SPE. An internal standard working solution (ISWS) is added to each calibrant and study sample (GPR-227 at 100 ng/mL in water). Plasma proteins are precipitated with 175 μL of methanol with 0.5% acetic acid (v/v). After centrifugation at 14,800 RPM for 10 minutes, a 300 μL aliquot of supernatant is diluted in water with 4% phosphoric acid (v/v). The entire diluted sample is extracted by SPE using a Waters Oasis HLB 96-well μElution plate. Samples are washed twice using a solution of acidified water (0.1% TFA, v/v) and 15% MeOH in water (v/v). Purified extracts are eluted into a 96-well collection plate using 40 μL of elution solvent. Standards and study samples are injected onto a Thermo Q-exactive LC-MS/MS system. Chromatographic separation is performed using a reversed-phase C18 HPLC column (Waters CSH C18, 50×2.1 mm, 2.5 μm). Analyte and internal standard are detected using the targeted selected ion monitoring (tSIM) scan mode. […]

The nature of data set [2]: Pharmacokinetic studies of THR-123 and GPR-294 i.v. and s.c. (FIG. 13, FIGS. 5-8). It counts as in vivo. The conditions noted are these: in vivo; s.c. versus i.v., FIG. 13; read-out: bioavailable by sub-cutaneous administration. Here is the method:
A stock solution of THR-123 was prepared at 250 μg/mL in DMSO. This solution was quantitatively added to blank mouse plasma to generate a calibration curve. The linear range was from 0.25 to 250 ng/mL. A 175 μL aliquot of plasma from removed from each calibrant tube and processed using solid phase extraction (SPE). Study samples were first diluted with blank control mouse plasma, and 175 μL was aliquoted for processing using SPE. An internal standard working solution (ISWS) was added to each calibrant and study sample (GPR-227 at 100 ng/mL in water). Plasma proteins were precipitated with 175 μL of methanol with 0.5% acetic acid (v/v). After centrifugation at 14,800 RPM for 10 minutes, a 300 μL aliquot of supernatant was diluted in water with 4% phosphoric acid (v/v). The entire diluted sample was extracted by SPE using a Waters Oasis HLB 96-well μElution plate. Samples were washed twice using a solution of acidified water (0.1% TFA, v/v) and 15% MeOH in water (v/v). Purified extracts were eluted into a 96-well collection plate using 40 μL of elution solvent. Standards and study samples were injected onto a Thermo Q-exactive LC-MS/MS system. Chromatographic separation was performed using a reversed-phase C18 HPLC column (Waters CSH C18, 50×2.1 mm, 2.5 μm). Analyte and internal standard were detected using the targeted selected ion monitoring (tSIM) scan mode. Calibration curves were generated by using a weighted (1/concentration^2) linear regression of the peak area ratios (analyte/internal standard) versus the nominal concentration of the calibration standards. The concentration of the analyte in the study samples was determined by back-calculating the peak area ratios obtained using the linear regression and applying the appropriate dilution factors.
The study described herein involved single (mouse) or multiple (rat) blood collections after test article administration. Test articles are given by oral (PO), intravenous (IV), subcutaneous (SC) or intraperitoneal (IP) routes. All animals have a five day acclimatization period before dosing. Body weights are recorded prior to dosing. […]

[3] abbreviates: mouse, in vivo, 1 mg/kg sc in CD1 mice.

“And” between values parts separate entries of the source, which are not always exact repeats. Identical values can stand only once. Like-named read-outs stand apart in the source and are kept apart here. Positions of bridges follow the written chain, without caps; N, C: chain ends. Non-standard residues stand in square brackets, D forms with d. Residues, ends and D or L forms follow the SMILES beside them. Bounds are passed on as bounds.

By Tmax is commonly meant the time at which the peak concentration occurs. One may read the AUC(0-inf) as the area under the concentration-time curve extrapolated to infinity. Low readings indicate less exposure, high ones more exposure. One may read the AUC(0-t) as exposure summed from dosing to a finite time, without extrapolation to infinity. Read a low AUC(0-t) as less exposure. Broadly, the Cmax is the peak of the concentration-time curve. A word on the MRT: it is a mean duration of stay, worked out from the concentration-time curve. Take `CC(C)C[C@@H]1NC(=O)[C@H](C(C)C)NC(=O)[C@H](CCC(N)=O)NC(=O)[C@H](CO)NC(=O)[C@H](CO)NC(=O)[C@H](CC(N)=O)NC(=O)[C@H](Cc2ccccc2)NC(=O)[C@H](Cc2ccc(O)cc2)NC(=O)[C@H](Cc2ccc(O)cc2)NC(=O)[C@@H](N)CSSC[C@@H](C(=O)N[C@@H](CCCCN)C(=O)N[C@@H](CCCNC(=N)N)C(=O)N[C@H](Cc2ccc(O)cc2)C(=O)N[C@@H](CCCNC(=N)N)C(=O)N[C@@H](CO)C(=O)O)NC1=O` [GPR-405, Cys-Tyr-Tyr-Phe-Asn-Ser-Ser-Gln-Val-Leu-Cys-Lys-Arg-(D)Tyr-Arg-Ser] (H-CYYFNSSQVLCKR[dY]RS-OH; disulfide 1-11): in data set [1] (1 mg/kg sc in CD1 mice), the “AUMC(0-t)” value is listed as 196073 ng*min^2/ml, the “CL*F” value is 3.83 mL/min, the “CL/kg*F” value stood at 120 mL/min/kg and the KeI is 0.04 min⁻¹. Further, in data set [1] (1 mg/kg sc in CD1 mice), the Tmax turned out to be 5 min, the “Vd*F” value stood at 172.28 mL and the Vss was found to be 90.22 mL. The “Terminal T1/2” value in data set [1] (1 mg/kg sc in CD1 mice, based on terminal decay rate) is reported as 31.21 min. In data set [1] (1 mg/kg sc in CD1 mice, log-linear fit of 30, 60, 240 min), the “K′ (terminal decay rate)” value was 0.022 min⁻¹. The “clearance compared with renal clearance” value in data set [1] (1 mg/kg sc in CD1 mice, mouse GFR approximately 10 ml/min/kg) is recorded as “about ten times greater than renal clearance”. In addition, the half-life in data set [1] (mouse, in vivo, sc, 1 mg/kg, 1 mg/kg sc in CD1 mice, based on terminal decay rate, read-out: Terminal T1/2) was about 30 min. In data set [1] (mouse, in vivo, sc, 1 mg/kg, 1 mg/kg sc in CD1 mice, read-out: Biological T1/2 (overall half-life)), the half-life is about 16 min. Also, the Tmax in data set [1] (mouse, in vivo, sc, 1 mg/kg, 1 mg/kg sc in CD1 mice, read-out: Tmax) is under 5 min. In data set [1] (setting [3]), the AUC(0-inf) is 142 ng·h/mL, the AUC(0-t) is 142 ng·h/mL, the Cmax came to 504 ng/mL and the MRT was 23.1 min. In addition, the bioavailability in data set [1] (mouse, in vivo, sc, mice, preliminary data) was about 60%. In addition, the level at 5 min in data set [1] (mouse, plasma, 1 mg/kg sc, CD1 mice, 5 min, read-out: Mean Concentration) turned out to be 504 ng/mL. Also, the level at 0.25 h in data set [1] (mouse, plasma, 1 mg/kg sc, CD1 mice, 15 min, read-out: Mean Concentration) was 117 ng/mL. In data set [1] (mouse, plasma, 1 mg/kg sc, CD1 mice, 30 min, read-out: Mean Concentration), the level at 0.5 h turned out to be 68.8 ng/mL. Further, the level at 1 h in data set [1] (mouse, plasma, 1 mg/kg sc, CD1 mice, 60 min, read-out: Mean Concentration) was found to be 15.9 ng/mL. For the same compound, in data set [1] (mouse, plasma, 1 mg/kg sc, CD1 mice, 240 min, read-out: Mean Concentration), the level at 4 h turned out to be 0.4 ng/mL. For the same compound, the “Final Concentration (individual mouse)” value in data set [1] (plasma, 1 mg/kg sc, CD1 mice, 5 min, 1 mg/kg) was 596.4 ng/ml and 411.9 ng/ml and 62.4 (outlier) ng/ml. Also, the “Final Concentration (individual mouse)” value in data set [1] (plasma, 1 mg/kg sc, CD1 mice, 15 min, 1 mg/kg) is 114.2 ng/mL and 118.3 ng/mL and 118.4 ng/mL. For the same compound, the “Final Concentration (individual mouse)” value in data set [1] (plasma, 1 mg/kg sc, CD1 mice, 30 min, 1 mg/kg) was 49.0 ng/mL and 88.6 ng/mL. The “Final Concentration (individual mouse)” value in data set [1] (plasma, 1 mg/kg sc, CD1 mice, 60 min, 1 mg/kg) is 23.0 ng/mL and 11.9 ng/mL and 12.8 ng/mL. Also, the “Final Concentration (individual mouse)” value in data set [1] (plasma, 1 mg/kg sc, CD1 mice, 240 min) was 0.4 ng/mL.
As to `CC(C)C[C@@H]1NC(=O)[C@H](C(C)C)NC(=O)[C@H](CC(N)=O)NC(=O)[C@H](CO)NC(=O)[C@H](CO)NC(=O)[C@H](CC(=O)O)NC(=O)[C@H](CC(=O)O)NC(=O)[C@H](Cc2ccccc2)NC(=O)[C@H](Cc2ccc(O)cc2)NC(=O)[C@@H](N)CSSC[C@@H](C(=O)N[C@@H](CCCCN)C(=O)N[C@@H](CCCCN)C(=O)N[C@@H](Cc2ccc(O)cc2)C(=O)N[C@@H](CCCNC(=N)N)C(=O)N[C@@H](CO)C(=O)O)NC1=O` [THR-123, Cys-Tyr-Phe-Asp-Asp-Ser-Ser-Asn-Val-Leu-Cys-Lys-Lys-Tyr-Arg-Ser] (H-CYFDDSSNVLCKKYRS-OH; disulfide 1-11), the bioavailability in data set [2] was determined as 81%.
